Legend:
[1] = biological target: T1, GST-ERR-α ligand-binding domain (Homo sapiens, UniProt P11474); test: HTRF assay system using ERR-α ligand-binding domain (inverse agonist activity, biotinylated SRC-1 (676-700) peptide); format: biochemical; conditions: compound final concentration 30 μM; 665/620 ratio; no compound = 0%, 10 μM XCT-790 = 100%; read-out: inhibition rate (%) at 30 μM
T1 sequence (P11474 193-421 limits assumed): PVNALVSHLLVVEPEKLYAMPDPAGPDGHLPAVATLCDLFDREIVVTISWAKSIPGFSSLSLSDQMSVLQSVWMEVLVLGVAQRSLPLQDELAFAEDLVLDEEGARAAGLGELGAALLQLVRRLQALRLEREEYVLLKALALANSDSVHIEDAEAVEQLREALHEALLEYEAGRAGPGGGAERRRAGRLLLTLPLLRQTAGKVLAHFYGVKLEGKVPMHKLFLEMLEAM
Description: Experimental Example 1 Compound Evaluation in HTRF Assay System Using ERR-α Ligand-Binding Domain
An assay buffer (25 mM HEPES, 100 mM NaCl, 1 mM DTT, 0.1% BSA) containing 5 nM GST-ERR-α ligand-binding domain (final concentration 1.25 nM) was added to a 384 well plate, then 40 μM N-[5-(trifluoromethyl)-1,3,4-thiadiazol-2-yl]-2-cyano-3-[3-methoxy-4-[2,4-di(trifluoromethyl)benzyloxy]phenyl]propenamide (XCT-790) (final concentration 10 μM), or 120 μM compound (final concentration 30 μM) was added. Furthermore, an assay buffer containing XL665 conjugated Streptavidin, Eu^3+ criptate conjugated GST antibody and 200 nM biotinylated SRC-1 (676-700) (final concentration 100 nM) was added, and the mixture was reacted at room temperature for 2 hr. Using Multiplate reader Envision (Perkin Elmer Inc.), after excitation at 320 nm, fluorescence values at 620 nm and 665 nm were measured. The inverse agonist activity of the compound was calculated in percentage with the 665/620 ratio value inhibited by no addition of compound as 0%, and with addition of final concentration 10 μM of XCT-790 as 100%.

MDA-MB-231-luc cells = test: Antitumor test using MDA-MB-231-luc cells (subcutaneous transplant); format: in vivo, Balb/c nu/nu mice; conditions: 50 mg/kg orally twice per day, dosing period 14 days; change in tumor volume, vehicle group = 100%
Description: Experimental Example 3 Antitumor Test using MDA-MB-231-luc Cells
6-Week-old Balb/c nu/nu mice were transplanted subcutaneously with 5×10^6 cells/100 μL, and the mice were grouped according to the body weight and tumor volume after 1 to 2 weeks. Vehicle (0.5% MC) or a compound was administered orally to mice (6 mice per group). The administration was twice per day and performed continuously during the dosing period. Setting the change in tumor volume of the vehicle-treated group as 100%, the change rate in tumor volume of the compound-treated group (□/C %) was calculated.

[2] = biological target: T2, fusion protein containing GAL4-DNA-binding domain and ERR full-length (Homo sapiens, UniProt P11474); test: Reporter assay system using 293T cells (GAL4-ERR luciferase, inverse agonist activity); format: cell-based; conditions: HEK-293T, compound final concentration 3 μM, no compound = 0%, 10 μM XCT-790 = 100%, read-out: inhibition rate (%) at 3 μM
T2 construct: expressed in transfected cells; host or cells: 293T cells
T2 sequence (P11474 1-423): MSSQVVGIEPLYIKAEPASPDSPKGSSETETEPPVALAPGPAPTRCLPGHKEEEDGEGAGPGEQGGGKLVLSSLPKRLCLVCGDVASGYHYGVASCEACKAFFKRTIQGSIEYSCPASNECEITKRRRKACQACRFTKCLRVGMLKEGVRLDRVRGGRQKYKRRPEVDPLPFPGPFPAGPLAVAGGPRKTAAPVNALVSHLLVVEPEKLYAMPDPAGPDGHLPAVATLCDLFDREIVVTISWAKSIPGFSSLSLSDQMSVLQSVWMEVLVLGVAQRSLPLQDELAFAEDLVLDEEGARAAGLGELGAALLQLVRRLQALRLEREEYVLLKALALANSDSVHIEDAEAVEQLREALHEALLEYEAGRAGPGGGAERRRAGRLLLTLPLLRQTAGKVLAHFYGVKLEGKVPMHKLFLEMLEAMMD
Description: Experimental Example 2 Compound Evaluation in Reporter Assay System Using 293T Cells
293T cells derived from human kidney were seeded in a 150 cm^2 flask by 6,000,000 cells, and cultured in a medium (DMEM medium containing 10% inactivated Fetal Bovine Serum sterile filtered (FBS), […] Gentamicin, 10 mM HEPES buffer (pH 7.4)) at 37° C. in the presence of 5% CO2 for 1 day.
Then, vector DNA having a gene encoding a fusion protein, containing GAL4-DNA-binding domain and ERR full-length and a vector DNA wherein luciferase gene is fused at the downstream of GAL4-binding-sequence were cotransfected by a lipofection method, and the cells were cultured at 37° C. in the presence of 5% CO2 for 1 day. The cells were recovered, sown in a 384 well plate by 15,000 cells, and cultured at 37° C. in the presence of 5% CO2 for 3 hrs. Furthermore, 50 μM N-[5-(trifluoromethyl)-1,3,4-thiadiazol-2-yl]-2-cyano-3-[3-methoxy-4-[2,4-di(trifluoromethyl)benzyloxy]phenyl]propenamide (XCT-790) (final concentration 10 μM) or 15 μM compound (final concentration 3 μM) was added, and the cells were cultured at 37° C. in the presence of 5% CO2 for 1 day. The luciferase activity was measured by using multiplate reader Envision (Perkin Elmer Inc.). The inverse agonist activity of the compound was calculated in percentage with the luciferase activity inhibited by no addition of compound as 0%, and with addition of final concentration 10 μM of XCT-790 as 100%.

SMILES: CN(C)C(=O)[C@@H](CO)NC1=NC(=O)S/C1=C\C1CCN(Cc2ccc(C(F)(F)F)cc2C(F)(F)F)CC1 [Example 115, N^2-[(5Z)-5-({1-[2,4-bis(trifluoromethyl)benzyl]piperidin-4-yl}methylidene)-2-oxo-2,5-dihydro-1,3-thiazol-4-yl]-N,N-dimethyl-D-serinamide]
- inhibition at 30 µM [1]: 99%
- T/C (%) (MDA-MB-231-luc cells): 55%
- inhibition at 3 µM [2]: 90%
